Results taken from patent US11884661B2, “3-substituted propionic acids as αV integrin inhibitors” (BRISTOL-MYERS SQUIBB COMPANY, priority 2016, dated 2024).

Target: T1, human αVβ6 (Homo sapiens, UniProt P06756+P18564)
T1 construct: purchased R & D systems 3817-AV
Assay: human αVβ6 HTRF binding assay
Details: recombinant human αVβ6 integrin, FITC-conjugated fibronectin
How it was run: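 Biotinylated recombinant αVβ6 (1.25 nM final) incubated with FITC-fibronectin (5 nM) 1 h at RT, then streptavidin-terbium (0.625 nM) added and incubated overnight at RT in the dark before HTRF read. Buffer: 20 mM Tris pH 7.4, 1 mM MgCl2, 1 mM MnCl2, 0.01% Tween 20, 0.01% BSA.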

T1 sequence (P06756 31-992 limits assumed): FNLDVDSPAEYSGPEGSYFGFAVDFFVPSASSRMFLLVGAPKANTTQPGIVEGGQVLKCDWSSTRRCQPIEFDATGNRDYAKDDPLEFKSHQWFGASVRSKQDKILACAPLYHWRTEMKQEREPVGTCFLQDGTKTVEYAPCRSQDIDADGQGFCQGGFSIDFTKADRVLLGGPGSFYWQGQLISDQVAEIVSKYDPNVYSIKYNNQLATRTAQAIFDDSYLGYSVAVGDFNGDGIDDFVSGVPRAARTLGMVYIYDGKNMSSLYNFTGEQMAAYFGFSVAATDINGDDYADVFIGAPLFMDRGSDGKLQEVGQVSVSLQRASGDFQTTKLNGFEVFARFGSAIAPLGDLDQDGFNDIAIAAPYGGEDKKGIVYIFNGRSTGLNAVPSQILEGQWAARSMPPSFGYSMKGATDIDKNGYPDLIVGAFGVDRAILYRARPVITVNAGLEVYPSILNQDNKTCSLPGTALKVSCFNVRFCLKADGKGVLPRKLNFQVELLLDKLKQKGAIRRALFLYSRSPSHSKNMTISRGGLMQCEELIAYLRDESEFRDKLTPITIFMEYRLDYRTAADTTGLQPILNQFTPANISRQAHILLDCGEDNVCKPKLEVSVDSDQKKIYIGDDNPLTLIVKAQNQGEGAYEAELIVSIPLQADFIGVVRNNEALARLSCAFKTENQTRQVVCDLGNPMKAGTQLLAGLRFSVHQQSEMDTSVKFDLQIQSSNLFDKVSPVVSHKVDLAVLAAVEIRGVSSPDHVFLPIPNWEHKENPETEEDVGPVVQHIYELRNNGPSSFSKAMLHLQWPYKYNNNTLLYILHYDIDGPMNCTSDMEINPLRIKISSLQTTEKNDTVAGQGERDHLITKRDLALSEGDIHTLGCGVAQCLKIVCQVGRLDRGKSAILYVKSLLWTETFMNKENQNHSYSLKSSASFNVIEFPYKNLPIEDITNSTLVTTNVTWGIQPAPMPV
T1 sequence (P18564 22-707 limits assumed): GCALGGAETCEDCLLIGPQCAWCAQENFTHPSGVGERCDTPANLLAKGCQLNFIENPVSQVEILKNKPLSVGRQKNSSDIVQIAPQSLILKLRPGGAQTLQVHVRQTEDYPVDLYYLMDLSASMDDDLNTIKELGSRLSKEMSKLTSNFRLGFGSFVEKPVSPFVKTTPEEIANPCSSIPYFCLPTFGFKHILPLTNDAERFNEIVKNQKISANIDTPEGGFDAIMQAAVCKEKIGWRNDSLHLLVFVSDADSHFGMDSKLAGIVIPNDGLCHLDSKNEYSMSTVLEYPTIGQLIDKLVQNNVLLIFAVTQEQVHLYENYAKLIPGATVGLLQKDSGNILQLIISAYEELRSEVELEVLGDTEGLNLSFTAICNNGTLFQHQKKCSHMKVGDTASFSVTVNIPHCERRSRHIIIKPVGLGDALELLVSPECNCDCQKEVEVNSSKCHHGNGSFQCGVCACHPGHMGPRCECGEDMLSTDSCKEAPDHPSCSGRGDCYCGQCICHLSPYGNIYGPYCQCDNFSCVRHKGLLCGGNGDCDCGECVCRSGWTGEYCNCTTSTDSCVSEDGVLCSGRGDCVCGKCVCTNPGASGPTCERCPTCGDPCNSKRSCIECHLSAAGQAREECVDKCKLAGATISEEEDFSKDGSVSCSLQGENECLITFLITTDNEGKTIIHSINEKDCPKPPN

Structure (SMILES)	IC50 [nM]
COc1ccc(C(CC(=O)O)c2nc(CCCCc3ccc4c(n3)NCCC4)cs2)cc1F (single isomer, unassigned) [Example 36, 3-(3-Fluoro-4-methoxyphenyl)-3-(4-(4-(5,6,7,8-tetrahydro-1,8-naphthyridin-2-yl)butyl)thiazol-2-yl)propanoic acid]	157
COc1ccc(C(CC(=O)O)n2ccc(CCCc3ccc4c(n3)NCCCC4)n2)cn1 (single isomer, unassigned) [Example 101, 3-(6-methoxypyridin-3-yl)-3-(3-(3-(6,7,8,9-tetrahydro-5H-pyrido[2,3-b]azepin-2-yl)propyl)-1H-pyrazol-1-yl)propanoic acid]	4.3
Cc1ncc(C(CC(=O)O)n2nccc2CCC[C@@H]2CCc3cccnc3N2)cn1 (mixture of isomers) [Example 91, 3-(2-methylpyrimidin-5-yl)-3-(5-(3-((R)-1,2,3,4-tetrahydro-1,8-naphthyridin-2-yl)propyl)-1H-pyrazol-1-yl)propanoic acid]	1400
COc1ncc([C@H](CC(=O)O)n2ccc(CCCc3ccc4c(n3)NCCC4)n2)cn1 [Example 82, (S)-3-(2-methoxypyrimidin-5-yl)-3-(3-(3-(5,6,7,8-tetrahydro-1,8-naphthyridin-2-yl)propyl)-1H-pyrazol-1-yl)propanoic acid]	8.5
COc1ccc(C(CC(=O)O)c2cnn(CCCc3ccc4c(n3)NCCC4)c2)cn1 (racemic) [Example 7, (±)-3-(6-Methoxypyridin-3-yl)-3-(1-(3-(5,6,7,8-tetrahydro-1,8-naphthyridin-2-yl)propyl)-1H-pyrazol-4-yl)propanoic acid]	323
Cc1cncc(C(CC(=O)O)n2ccc(CCCc3ccc4c(n3)NCCC4)n2)c1 (single isomer, unassigned) [Example 70, 3-(5-methylpyridin-3-yl)-3-{3-[3-(5,6,7,8-tetrahydro-1,8-naphthyridin-2-yl)propyl]-1H-pyrazol-1-yl}propanoic acid]	4900
O=C(O)CC(c1cncc(N2CCOCC2)c1)n1ccc(CCCc2ccc3c(n2)NCCC3)n1 (single isomer, unassigned) [Example 67, 3-[5-(morpholin-4-yl)pyridin-3-yl]-3-{3-[3-(5,6,7,8-tetrahydro-1,8-naphthyridin-2-yl)propyl]-1H-pyrazol-1-yl}propanoic acid]	210
COc1ncc(C(CC(=O)O)n2ncc(CCCc3ccc4c(n3)NCCC4)n2)cn1 (single isomer, unassigned) [Example 176, 3-(2-methoxypyrimidin-5-yl)-3-(4-(3-(5,6,7,8-tetrahydro-1,8-naphthyridin-2-yl)propyl)-2H-1,2,3-triazol-2-yl)propanoic acid]	43
COc1ncc(C(CC(=O)O)n2nccc2CCC[C@H]2CCc3cccnc3N2)cn1 (mixture of isomers) [Example 92, 3-(2-methoxypyrimidin-5-yl)-3-(5-(3-((S)-1,2,3,4-tetrahydro-1,8-naphthyridin-2-yl)propyl)-1H-pyrazol-1-yl)propanoic acid]	6700
COc1cncc(C(CC(=O)O)n2nccc2CCCc2ccc3c(n2)NCCCC3)c1 (racemic) [Example 108, (±)-3-(5-methoxypyridin-3-yl)-3-(5-(3-(6,7,8,9-tetrahydro-5H-pyrido[2,3-b]azepin-2-yl)propyl)-1H-pyrazol-1-yl)propanoic acid]	170
COc1ccc(C(CC(=O)O)c2nc(CCCC3CCc4cccnc4N3)cs2)cc1F (single isomer, unassigned) [Example 161, 3-(3-fluoro-4-methoxyphenyl)-3-(4-(3-(1,2,3,4-tetrahydro-1,8-naphthyridin-2-yl)propyl)thiazol-2-yl)propanoic acid]	12
COc1ccc(C(CC(=O)O)c2nc(CCCC3CCc4cccnc4N3)cs2)cc1F (single isomer, unassigned) [Example 160, 3-(3-fluoro-4-methoxyphenyl)-3-(4-(3-(1,2,3,4-tetrahydro-1,8-naphthyridin-2-yl)propyl)thiazol-2-yl)propanoic acid]	195
O=C(O)C[C@@H](c1cnc(O)nc1)n1ccc(CCCc2ccc3c(n2)NCCC3)n1 [Example 85, (S)-3-(2-hydroxypyrimidin-5-yl)-3-(3-(3-(5,6,7,8-tetrahydro-1,8-naphthyridin-2-yl)propyl)-1H-pyrazol-1-yl)propanoic acid]	52
COc1cnc(C(CC(=O)O)n2ccc(CCCc3ccc4c(n3)NCCC4)n2)cn1 (racemic) [Example 59, (±)-3-(5-Methoxypyrazin-2-yl)-3-(3-(3-(5,6,7,8-tetrahydro-1,8-naphthyridin-2-yl)propyl)-1H-pyrazol-1-yl)propanoic acid]	110
COc1ccc(C(CC(=O)O)c2cnn(CCCCc3ccc4c(n3)NCCC4)c2)cn1 (racemic) [Example 11, (±)-3-(6-Methoxypyridin-3-yl)-3-(1-(4-(5,6,7,8-tetrahydro-1,8-naphthyridin-2-yl)butyl)-1H-pyrazol-4-yl)propanoic acid]	100
COc1ccc(C(CC(=O)O)c2nc(CCCC3CCc4cccnc4N3)cs2)cc1F (single isomer, unassigned) [Example 158, 3-(3-fluoro-4-methoxyphenyl)-3-(4-(3-(1,2,3,4-tetrahydro-1,8-naphthyridin-2-yl)propyl)thiazol-2-yl)propanoic acid]	7
CCCCOC(=O)NC(Cc1cnn(CCc2ccc3c(n2)NCCC3)c1)C(=O)O (racemic) [Example 23, (±)-2-((Butoxycarbonyl)amino)-3-(1-(2-(5,6,7,8-tetrahydro-1,8-naphthyridin-2-yl)ethyl)-1H-pyrazol-4-yl)propanoic acid]	1020
CN(C)c1ccc(C(CC(=O)O)c2nc(CCCCc3ccc4c(n3)NCCC4)cs2)cn1 (single isomer, unassigned) [Example 122, 3-(6-(dimethylamino)pyridin-3-yl)-3-(4-(4-(5,6,7,8-tetrahydro-1,8-naphthyridin-2-yl)butyl)thiazol-2-yl)propanoic acid]	3.5
COc1ccc(C(CC(=O)O)n2ccc(CCCc3ccc4c(n3)NCCCC4)n2)cn1 (racemic) [Example 100, (±)-3-(6-methoxypyridin-3-yl)-3-(3-(3-(6,7,8,9-tetrahydro-5H-pyrido[2,3-b]azepin-2-yl)propyl)-1H-pyrazol-1-yl)propanoic acid]	6.4
O=C(O)C[C@H](c1cnc2c(c1)OCCO2)n1ccc(CCCc2ccc3c(n2)NCCC3)n1 [Example 52, (R)-3-(2,3-Dihydro-[1,4]dioxino[2,3-b]pyridin-7-yl)-3-(3-(3-(5,6,7,8-tetrahydro-1,8-naphthyridin-2-yl)propyl)-1H-pyrazol-1-yl)propanoic acid]	730
O=C(O)CC(c1cccc(N2CCOCC2)c1)c1nc(CCCCc2ccc3c(n2)NCCC3)cs1 (single isomer, unassigned) [Example 125, 3-(3-morpholinophenyl)-3-(4-(4-(5,6,7,8-tetrahydro-1,8-naphthyridin-2-yl)butyl)thiazol-2-yl)propanoic acid]	180
CN(C)C(=O)c1cncc(C(CC(=O)O)n2nccc2CCCc2ccc3c(n2)NCCC3)c1 (racemic) [Example 72, (±)-3-[5-(dimethylcarbamoyl)pyridin-3-yl]-3-{5-[3-(5,6,7,8-tetrahydro-1,8-naphthyridin-2-yl)propyl]-1H-pyrazol-1-yl}propanoic acid]	24
